US20230391772A1, “METHODS AND COMPOSITIONS FOR TARGETED PROTEIN DEGRADATION” (Ranok Therapeutics (Hangzhou) Co. Ltd., priority 2020, published 2023)

Tests used:
HSP90a protein = biological target: T1, HSP90a protein (Homo sapiens, UniProt P07900); test: HSP90α-binding fluorescent polarization (FP) assay, BODIPY-labeled RNK04010 probe; conditions: FP competition with RNK04010 (BODIPY-labeled), 5 nM, 300 min at 25° C.
T1 construct: purchased BPS Bioscience 50298
How it was run: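 Binding was scored by fluorescence polarization after adding N-terminal HSP90a to wells holding probe and compound, with compound tested from 20 μM to 5.2 nM. Probe-dependent times at 25° C were 120 min for FITC-geldanamycin and 300 min for RNK04010-BODIPY, both at 5 nM final.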

KRAS(G12C) [1] = biological target: T2, KRAS(G12C) (Homo sapiens, UniProt P01116, G12C); test: KRAS(G12C)/SOS1 homogeneous time-resolved fluorescence (HTRF) assay; parameters: purchased Cisbio 63ADK000CB16PEG; conditions: absence of GTP, 4° C. for 3 hr, read-out: KRAS (G12C) binding
How it was run: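 Three-hour incubation at 4 °C of 3-fold compound dilutions (lowest 1.02 nM) with KRAS(G12C), SOS1 and detection reagents, GTP absent. Disruption of the KRAS(G12C)/SOS1 complex detected by time-resolved fluorescence.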

[2] = test system: MIA PaCa-2 human pancreatic carcinoma; test: MIA PaCa-2 CCK-8 proliferation assay; type: cell-based; conditions: Homo sapiens, MIA PaCa-2, 72 h, MIA PaCa-2 cells
How it was run: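 CCK-8 absorbance readout; % inhibition = 100 − (compound − blank)/(DMSO − blank) × 100, blank = medium + DMSO, no cells. Dose range 20 μM down to 1.02 nM, 3-fold steps. KRAS(G12C) copy number: MIA PaCa-2 2; NCI-H358 1; NCI-H23 1.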

KRAS(G12C) [3] = biological target: T2, KRAS(G12C); test: KRAS(G12C) Western blot protein degradation assay in LU65A cells; type: cell-based; parameters: LU65A human lung cancer cell line, which expresses KRAS(G12C); host or cells: LU65A; conditions: 6 hr
How it was run: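 KRAS levels read by fluorescent Western blot (β-actin as reference) on BCA-normalized lysates. Exposure to a compound concentration range at 37 °C lasted 6 hr in LU65A and 48 hr in MIA PaCa-2; DC50 taken as half-maximal degradation concentration.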

T2 sequence (P01116 1-188 isoform P01116-2 G12C): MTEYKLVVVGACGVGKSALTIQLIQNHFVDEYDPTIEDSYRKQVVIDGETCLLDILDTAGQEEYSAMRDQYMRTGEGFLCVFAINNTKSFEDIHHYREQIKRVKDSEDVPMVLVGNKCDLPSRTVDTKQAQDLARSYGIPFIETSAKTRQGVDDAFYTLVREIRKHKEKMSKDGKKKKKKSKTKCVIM

Compound	IC50 (HSP90a protein)	IC50 (KRAS(G12C) [1])	EC50 [2]	DC50 (KRAS(G12C) [3])
C=CC(=O)N1CCN(c2nc(OCC3CN(C(=O)C4CCN(Cc5ccc(-n6c(C(=O)NCC(F)(F)F)nnc6-c6cc(C)c(O)cc6O)cc5)CC4)C3)nc3c2CCN(c2cccc4cccc(Cl)c24)C3)C[C@@H]1CC#N [Compound 219, (S)-4-(4-((4-(3-(((4-(4-acryloyl-3-(cyanomethyl)piperazin-1-yl)-7-(8-chloronaphthalen-1-yl)-5,6,7,8-tetrahydropyrido[3,4-d]pyrimidin-2-yl)oxy)methyl)azetidine-1-carbonyl)piperidin-1-yl)methyl)phenyl)-5-(2,4-dihydroxy-5-methylphenyl)-N-(2,2,2-trifluoroethyl)-4H-1,2,4-triazole-3-carboxamide]	< 100 nM	100 to 1000 nM	> 1000 nM	> 1000 nM
C=CC(=O)N1CCN(c2nc(OC[C@@H]3C[C@H](C(=O)N[C@@H]4CCCN(Cc5ccc(-n6c(O)nnc6-c6cc(C(C)C)c(O)cc6O)cc5)C4)CN3C)nc3c2CCN(c2cccc4cccc(Cl)c24)C3)C[C@@H]1CC#N [Compound 229, (3S,5S)-5-({[7-(8-chloronaphthalen-1-yl)-4-[(3S)-3-(cyanomethyl)-4-(prop-2-enoyl)piperazin-1-yl]-5H,6H,8H-pyrido[3,4-d]pyrimidin-2-yl]oxy}methyl)-N-[(3R)-1-({4-[3-(2,4-dihydroxy-5-isopropylphenyl)-5-hydroxy-1,2,4-triazol-4-yl]phenyl}methyl)piperidin-3-yl]-1-methylpyrrolidine-3-carboxamide]	< 100 nM	< 100 nM	> 1000 nM	> 1000 nM
C=CC(=O)N1CCN(c2nc(OCCN3CCN(Cc4ccc(-n5c(O)nnc5-c5cc(C)c(O)cc5O)cc4)CC3)nc3c2CCN(c2cccc4cccc(Cl)c24)C3)C[C@@H]1CC#N [Compound 213, (S)-2-(1-acryloyl-4-(7-(8-chloronaphthalen-1-yl)-2-(2-(4-(4-(3-(2,4-dihydroxy-5-methylphenyl)-5-hydroxy-4H-1,2,4-triazol-4-yl)benzyl)piperazin-1-yl)ethoxy)-5,6,7,8-tetrahydropyrido[3,4-d]pyrimidin-4-yl)piperazin-2-yl)acetonitrile]	< 100 nM	100 to 1000 nM	> 1000 nM	> 1000 nM
C=CC(=O)N1CCN(c2nc(OCC3CN(Cc4ccc(-n5c(O)nnc5-c5cc(C(C)C)c(O)cc5O)cc4)C3)nc3c2CCN(c2cccc4cccc(Cl)c24)C3)C[C@@H]1CC#N [Compound 231, (S)-2-(1-acryloyl-4-(7-(8-chloronaphthalen-1-yl)-2-((1-(4-(3-(2,4-dihydroxy-5-isopropylphenyl)-5-hydroxy-4H-1,2,4-triazol-4-yl)benzyl)azetidin-3-yl)methoxy)-5,6,7,8-tetrahydropyrido[3,4-d]pyrimidin-4-yl)piperazin-2-yl)acetonitrile]	< 100 nM	100 to 1000 nM	> 1000 nM	> 1000 nM
C=CC(=O)N1CCN(c2nc(OCCN3CCN(C(=O)C4CCN(Cc5ccc(-n6c(O)nnc6-c6cc(C)c(O)cc6O)cc5)CC4)CC3)nc3c2CCN(c2cccc4cccc(Cl)c24)C3)C[C@@H]1CC#N [Compound 223, (S)-2-(1-acryloyl-4-(7-(8-chloronaphthalen-1-yl)-2-(2-(4-(1-(4-(3-(2,4-dihydroxy-5-methylphenyl)-5-hydroxy-4H-1,2,4-triazol-4-yl)benzyl)piperidine-4-carbonyl)piperazin-1-yl)ethoxy)-5,6,7,8-tetrahydropyrido[3,4-d]pyrimidin-4-yl)piperazin-2-yl)acetonitrile]	< 100 nM	< 100 nM	> 1000 nM	100 to 1000 nM
C=CC(=O)N1CCN(c2nc(OCC3CN(Cc4ccc(-n5c(O)nnc5-c5cc(C)c(O)cc5O)cc4)C3)nc3c2CCN(c2cccc4cccc(Cl)c24)C3)C[C@@H]1CC#N [Compound 232, (S)-2-(1-acryloyl-4-(7-(8-chloronaphthalen-1-yl)-2-((1-(4-(3-(2,4-dihydroxy-5-methylphenyl)-5-hydroxy-4H-1,2,4-triazol-4-yl)benzyl)azetidin-3-yl)methoxy)-5,6,7,8-tetrahydropyrido[3,4-d]pyrimidin-4-yl)piperazin-2-yl)acetonitrile]	< 100 nM	< 100 nM	> 1000 nM	> 1000 nM

The next lines start with the values.

IC50 (HSP90a protein)	IC50 (KRAS(G12C) [1])	EC50 [2]	DC50 (KRAS(G12C) [3])	Compound
< 100 nM	< 100 nM	100 to 1000 nM	100 to 1000 nM	C=CC(=O)N1CCN(c2nc(OC[C@@H]3C[C@H](C(=O)NCCc4ccc(CN5CCC(Cc6ccc(-n7c(C(=O)NCC(F)(F)F)nnc7-c7cc(C(C)C)c(O)cc7O)cc6)CC5)cc4)CN3C)nc3c2CCN(c2cccc4cccc(Cl)c24)C3)C[C@@H]1CC#N [Compound 346, 4-{4-[(1-{[4-(2-{[(3S,5S)-5-({[7-(8-chloronaphthalen-1-yl)-4-[(3S)-3-(cyanomethyl)-4-(prop-2-enoyl)piperazin-1-yl]-5H,6H,8H-pyrido[3,4-d]pyrimidin-2-yl]oxy}methyl)-1-methylpyrrolidin-3-yl]formamido}ethyl)phenyl]methyl}piperidin-4-yl)methyl]phenyl}-5-(2,4-dihydroxy-5-isopropylphenyl)-N-(2,2,2-trifluoroethyl)-1,2,4-triazole-3-carboxamide]
< 100 nM	< 100 nM	100 to 1000 nM	> 1000 nM	C=CC(=O)N1CCN(c2nc(OC[C@@H]3C[C@H](N4CCC(C(=O)N5CCN(Cc6ccc(-n7c(C(=O)NC)nnc7-c7cc(C(C)C)c(O)cc7O)cc6)CC5)CC4)CN3C)nc3c2CCN(c2cccc4cccc(Cl)c24)C3)C[C@@H]1CC#N [Compound 234, 4-{4-[(4-{1-[(3S,5S)-5-({[7-(8-chloronaphthalen-1-yl)-4-[(3S)-3-(cyanomethyl)-4-(prop-2-enoyl)piperazin-1-yl]-5H,6H,8H-pyrido[3,4-d]pyrimidin-2-yl]oxy}methyl)-1-methylpyrrolidin-3-yl]piperidine-4-carbonyl}piperazin-1-yl)methyl]phenyl}-5-(2,4-dihydroxy-5-isopropylphenyl)-N-methyl-1,2,4-triazole-3-carboxamide]
< 100 nM	< 100 nM	100 to 1000 nM	100 to 1000 nM	C=CC(=O)N1CCN(c2nc(OC[C@@H]3C[C@H](N4CCC(C(=O)N5CCC6(CC5)CN(Cc5ccc(-n7c(O)nnc7-c7cc(C(C)C)c(O)cc7O)cc5)C6)CC4)CN3C)nc3c2CCN(c2cccc4cccc(Cl)c24)C3)C[C@@H]1CC#N [Compound 350, 2-[(2S)-4-[7-(8-chloronaphthalen-1-yl)-2-{[(2S,4S)-4-{4-[2-({4-[3-(2,4-dihydroxy-5-isopropylphenyl)-5-hydroxy-1,2,4-triazol-4-yl]phenyl}methyl)-2,7-diazaspiro [3.5]nonane-7-carbonyl]piperidin-1-yl}-1-methylpyrrolidin-2-yl]methoxy}-5H,6-H,8H-pyrido[3,4-d]pyrimidin-4-yl]-1-(prop-2-enoyl)piperazin-2-yl]acetonitrile]
< 100 nM	< 100 nM	> 1000 nM	100 to 1000 nM	C=CC(=O)N1CCN(c2nc(OC[C@@H]3C[C@H](C(=O)NCCOCCOc4ccc(-n5c(O)nnc5-c5cc(CC)c(O)cc5O)cc4)CN3C)nc3c2CCN(c2cccc4cccc(Cl)c24)C3)C[C@@H]1CC#N [Compound 349, (3S,5S)-5-({[7-(8-chloronaphthalen-1-yl)-4-[(3S)-3-(cyanomethyl)-4-(prop-2-enoyl)piperazin-1-yl]-5H,6H,8H-pyrido[3,4-d]pyrimidin-2-yl]oxy}methyl)-N-[2-(2-{4-[3-(5-ethyl-2,4-dihydroxyphenyl)-5-hydroxy-1,2,4-triazol-4-yl]phenoxy}ethoxy)ethyl]-1-methylpyrrolidine-3-carboxamide]
